This note sets out measurements from US7807664B2, “4,4-difluoro-1,2,3,4-tetrahydro-5H-1-benzazepine derivative or salt thereof” (Astella Pharma Inc., priority 2003, dated 2010).

The target of one assay is CYP3A4 (Homo sapiens, UniProt P08684). The assay is described as follows: Cytochrome P450 (3A4) Enzyme Inhibition Test. The class given is in vitro ADME. The note with it: substrate 7-benzyloxy-4-(trifluoromethyl)cumarin, 37° C. 30 minutes; read-out: CYP3A4 inhibitory activity IC50. The method, then:
(4) Cytochrome P450 (3A4) Enzyme Inhibition Test
(§1) This test was carried out in accordance with the method of Crespi et al. (Analytical Biochemistry, 248, 188-190, 1997).
(§2) Using a 96 well plate, 7-benzyloxy-4-(trifluoromethyl)cumarin as the substrate (5×10^−5 M), each test compound (from 4.9×10^−8 to 5×10^−5 M) and the enzyme (5×10^−9 M) were incubated at 37° C. for 30 minutes in 200 μl in total volume of 200 mM phosphate buffer (pH=7.4) containing 8.2 μM NADP+, 0.41 mM glucose-6-phosphate, 0.41 mM MgCl2 and 0.4 units/ml glucose-6-phosphate dehydrogenase. Thereafter, the reaction was stopped by adding 0.5 M 2-amino-2-hydroxymethyl-1,3-propanediol aqueous solution containing 80% acetonitrile, and the fluorescence intensity (excitation wavelength; 409 nm, fluorescence wavelength; 530 nm) was measured using a fluorescence plate reader. The inhibition ratio was calculated based on the following formula, and concentration of each test compound by which the inhibition ratio becomes 50% (IC50) was obtained. Inhibition ratio (%)=100−(C1−B1)/(C0−B1)×100 C1: Fluorescence intensity in the presence of test compound having known concentration, enzyme and substrate C0: Fluorescence intensity in the absence of test compound and in the presence of enzyme and substrate B1: Fluorescence intensity of blank well (5) Cytochrome P450 (2C9) Enzyme Inhibition Test

A further assay concerns the target CYP2C9 (Homo sapiens, UniProt P11712). The assay is described as follows: Cytochrome P450 (2C9) Enzyme Inhibition Test. The class given is in vitro ADME. To be noted: substrate 7-methoxy-4-(trifluoromethyl)cumarin, 37° C. 45 minutes; read-out: CYP2C9 inhibitory activity IC50. The method, then:
as §2, §1
Using a 96 well plate, 7-methoxy-4-(trifluoromethyl)cumarin as the substrate (7.5×10^−5 M), each test compound (from 4.9×10^−8 to 5×10^−5 M) and the enzyme (10^−8 M) were incubated at 37° C. for 45 minutes in 200 μl in total volume of 200 mM phosphate buffer (pH=7.4) containing 8.2 μM NADP+, 0.41 mM glucose-6-phosphate, 0.41 mM MgCl2 and 0.4 units/ml glucose-6-phosphate dehydrogenase. Thereafter, the reaction was stopped by adding 0.5 M 2-amino-2-hydroxymethyl-1,3-propanediol aqueous solution containing 80% acetonitrile, and the fluorescence intensity (excitation wavelength; 409 nm, fluorescence wavelength; 530 nm) was measured using a fluorescence plate reader. The inhibition ratio was calculated based on the same formula of aforementioned (4), and concentration of each test compound by which the inhibition ratio becomes 50% (IC50) was obtained.

For a further assay, the target named is T1, human V2 receptor (Homo sapiens, UniProt P30518).
T1 construct: expressed in transfected cells; host or cells: CHO cells (membrane preparation)
T1 sequence (P30518 whole entry): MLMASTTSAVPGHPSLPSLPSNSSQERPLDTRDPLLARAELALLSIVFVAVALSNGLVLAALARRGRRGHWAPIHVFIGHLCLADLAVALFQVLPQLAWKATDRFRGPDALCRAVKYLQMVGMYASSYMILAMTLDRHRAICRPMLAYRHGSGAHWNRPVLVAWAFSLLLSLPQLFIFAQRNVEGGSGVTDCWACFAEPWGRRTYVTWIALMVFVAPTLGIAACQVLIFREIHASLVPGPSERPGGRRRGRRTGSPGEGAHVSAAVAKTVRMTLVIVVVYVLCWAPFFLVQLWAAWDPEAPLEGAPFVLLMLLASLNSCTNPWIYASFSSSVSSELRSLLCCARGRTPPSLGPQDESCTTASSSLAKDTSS
The assay is described as follows: V2 Receptor Binding Test. To be noted: human V2 expression CHO cell membrane, [3H]-vasopressin 0.5 nM, 25° C. 60 minutes; read-out: Affinity for V2 receptor Ki. The method, then: (1) V2 Receptor Binding Test
A human V2 expression CHO cell membrane sample was prepared in accordance with the method of Tahara et al. (British Journal of Pharmacology, Vol. 125, pp. 1463-1470, 1998). A 2 μg portion of the membrane sample was incubated together with [^3H]-arginine vasopressin (to be referred simply to as “[^3H]-vasopressin” hereinafter) (0.5 nM, specific activity=75 Ci/mmol) and each compound to be tested (10^−10 to 10^−5 M) at 25° C. for 60 minutes in 250 μl in total volume of 50 mM Tris-HCl buffer (pH=7.4) containing 10 mM MgCl2 and 0.1% bovine serum albumin (BSA). Thereafter, free [^3H]-vasopressin and receptor-bonded [^3H]-vasopressin were separated using a cell harvester, and the receptor-bonded [^3H]-vasopressin was adhered onto a uni-filter plate GF/B glass filter. After sufficient drying, this was mixed with a microplate scintillation cocktail, amount of the receptor-bonded [^3H]-vasopressin was measured using top count and the inhibition ratio was calculated by the following formula. Inhibition ratio(%)=100−(C1−B1)/(C0−B1)×100 C1: Amount of [^3H]-vasopressin bonded to the membrane sample when [^3H]-vasopressin and the receptor membrane sample are treated in the coexistence of test compound having known concentration C0: Amount of [^3H]-vasopressin bonded to the membrane sample when [^3H]-vasopressin and the receptor membrane sample are treated in the absence of test compound B1: Amount of [^3H]-vasopressin bonded to the membrane sample when [^3H]-vasopressin and the receptor membrane sample are treated in the coexistence of excess amount of vasopressin (10^−6 M)
Concentration of each test compound by which the inhibition ratio becomes 50% (IC50 value) was calculated by the aforementioned formula, and affinity of the test compound for the receptor, namely dissociation constant (Ki), was calculated from this by the following formula. Dissociation constant(Ki)=IC50/(1+[L]/Kd) [L]: Concentration of [^3H]-vasopressin Kd: Dissociation constant of [^3H]-vasopressin against the receptor obtained by a saturation binding test

In a further assay the test system is male Wistar rats. The assay is described as follows: Antidiuretic Test (Intravenous Administration). The class given is in vivo. To be noted: rat, 0.3 mg/kg intravenous, water loading 30 ml/kg 15 minutes later; for Urine excretion ratio (%) After 1 hour: urine until 1 hour; for Urine excretion ratio (%) After 2 hours: urine until 2 hours. The method, then:
(2) Antidiuretic Test (Intravenous Administration)
Five animals per group of male Wistar rats (10 to 12 weeks of age) were used in the test. The compound of Example 3 was intravenously administered to group A at a dose of 0.3 mg/kg, and the compound of Example 9 to group B at a dose of 0.3 mg/kg, both after dissolving in a solvent (physiological saline containing DMSO), and the solvent alone at a dose of 1 ml/kg to group C as a control, and then 30 ml/kg of distilled water was orally administered by force 15 minutes thereafter (water loading). Urine samples until 2 hours after the water loading were collected using a metabolism cage, and the amount of urine when the water loading amount was defined as 100% was calculated as the urine excretion ratio. In this connection, average value of the urine excretion ratio until after 1 hour and the urine excretion ratio until after 2 hours in each group was used in the evaluation.

CYP2C9, sequence (P11712 whole entry): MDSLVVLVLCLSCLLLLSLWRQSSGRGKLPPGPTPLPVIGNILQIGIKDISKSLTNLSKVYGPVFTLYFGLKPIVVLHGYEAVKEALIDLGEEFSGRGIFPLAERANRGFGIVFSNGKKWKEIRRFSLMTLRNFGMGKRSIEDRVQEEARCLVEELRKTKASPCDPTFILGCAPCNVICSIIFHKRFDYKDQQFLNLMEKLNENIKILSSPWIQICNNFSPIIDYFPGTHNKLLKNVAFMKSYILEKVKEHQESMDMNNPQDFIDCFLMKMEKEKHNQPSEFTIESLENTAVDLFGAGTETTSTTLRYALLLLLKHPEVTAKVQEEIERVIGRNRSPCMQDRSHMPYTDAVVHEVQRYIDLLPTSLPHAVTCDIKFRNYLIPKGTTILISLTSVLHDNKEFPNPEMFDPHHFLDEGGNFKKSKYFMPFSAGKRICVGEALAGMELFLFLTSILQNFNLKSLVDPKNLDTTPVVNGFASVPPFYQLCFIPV
CYP3A4, sequence (P08684 whole entry): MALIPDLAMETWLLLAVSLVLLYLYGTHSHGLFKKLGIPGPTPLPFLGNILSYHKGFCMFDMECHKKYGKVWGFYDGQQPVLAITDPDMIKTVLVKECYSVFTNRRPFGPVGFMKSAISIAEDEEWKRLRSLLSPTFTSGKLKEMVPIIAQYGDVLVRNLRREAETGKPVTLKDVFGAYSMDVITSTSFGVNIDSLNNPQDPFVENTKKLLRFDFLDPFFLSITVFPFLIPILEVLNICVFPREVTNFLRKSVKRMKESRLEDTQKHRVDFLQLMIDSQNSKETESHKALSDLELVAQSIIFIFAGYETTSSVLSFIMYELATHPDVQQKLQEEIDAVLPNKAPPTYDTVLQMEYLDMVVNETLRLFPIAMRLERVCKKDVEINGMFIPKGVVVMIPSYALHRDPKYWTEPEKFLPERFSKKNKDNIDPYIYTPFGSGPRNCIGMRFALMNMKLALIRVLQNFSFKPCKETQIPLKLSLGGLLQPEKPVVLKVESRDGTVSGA

Take `CC(C)NC(=O)C[C@H]1CCCN(C(=O)c2ccc(N3CCCC3)cc2Cl)c2ccccc21` [Comparative compound, 2-[(5R)-1-(2-chloro-4-pyrrolidin-1-ylbenzoyl)-2,3,4,5-tetrahydrobenzazepin-5-yl]-N-isopropylacetamide, reference compound]: the IC50 on CYP3A4 and at CYP2C9 was under 91 nM in each case.
Turning to `NC(=O)CNC(=O)/C=C1/c2ccccc2N(C(=O)c2ccc(OCC3CC3)cc2C(F)(F)F)CCC1(F)F` [Example 3], the Ki – broadly, a measure of affinity in units of concentration, obtained from inhibition or displacement – at human V2 receptor is 11 nM. Moreover, the “Urine excretion ratio (%) After 1 hour” value in the assay on male Wistar rats is given as 1.3%. The “Urine excretion ratio (%) After 2 hours” value with male Wistar rats worked out at 6.2%. Moreover, the IC50 on CYP3A4 and on CYP2C9 was over 50000 nM in each case.
For `CCCCOc1ccc(C(=O)N2CCC(F)(F)/C(=C\C(=O)NCC(N)=O)c3ccccc32)c(C(F)(F)F)c1` [Example 9], the Ki on human V2 receptor stood at 19 nM. Moreover, in the assay with male Wistar rats, the “Urine excretion ratio (%) After 1 hour” value turned out to be 0% and the “Urine excretion ratio (%) After 2 hours” value amounted to 5.3%. Besides, the IC50 (in general, the concentration at which inhibition is half-maximal) on CYP3A4 turned out to be 13000 nM. Also, on CYP2C9, the IC50 was determined as 11000 nM.
As for `CCCN(C)c1ccc(C(=O)N2CCC(F)(F)/C(=C\C(=O)NCC(N)=O)c3ccccc32)c(C(F)(F)F)c1` [Example 14], the Ki on human V2 receptor worked out at 18 nM.
Still for that read-out and setting: under `CCCOc1ccc(C(=O)N2CCC(F)(F)/C(=C\C(=O)NCC(N)=O)c3cc(Cl)ccc32)c(C(F)(F)F)c1` [Example 24] stands 4.3 nM; under `C[C@@H](F)COc1ccc(C(=O)N2CCC(F)(F)/C(=C\C(=O)NCC(N)=O)c3cc(F)ccc32)c(C(F)(F)F)c1` [Example 31, (2Z)-N-(2-amino-2-oxoethyl)-2-{4,4,7-trifluoro-1-[4-{[(2R)-2-fluoropropyl]oxy}-2-(trifluoromethyl)benzoyl]-1,2,3,4-tetrahydro-5H-1-benzazepin-5-ylidene}acetamide], 10 nM.
On the same count and under the same terms, under `CCCOc1ccc(C(=O)N2CCC(F)(F)/C(=C\C(=O)NCCO)c3cc(F)ccc32)c(C(F)(F)F)c1` [Example 46] stands 5.8 nM.
As for `CC(F)(F)COc1ccc(C(=O)N2CCC(F)(F)/C(=C\C(=O)NCCO)c3ccccc32)c(C(F)(F)F)c1` [Example 51, (2Z)-2-{1-[4-(2,2-difluoropropoxy)-2-(trifluoromethyl)benzoyl]-4,4-difluoro-1,2,3,4-tetrahydro-5H-1-benzazepin-5-ylidene}-N-(2-hydroxyethyl)acetamide], the IC50 is over 50000 nM on CYP3A4 and 34000 nM on CYP2C9.
Take `C[C@H](F)COc1ccc(C(=O)N2CCC(F)(F)/C(=C\C(=O)NCCO)c3cc(F)ccc32)c(C(F)(F)F)c1` [Example 54, (2Z)-N-(2-hydroxyethyl)-2-{4,4,7-trifluoro-1-[4-{[(2S)-2-fluoropropyl]oxy}-2-(trifluoromethyl)benzoyl]-1,2,3,4-tetrahydro-5H-1-benzazepin-5-ylidene}acetamide]: at human V2 receptor, the Ki is 17 nM. Further, the IC50 at CYP3A4 was over 50000 nM; at CYP2C9, 43000 nM.
For `C[C@@H](F)COc1ccc(C(=O)N2CCC(F)(F)/C(=C\C(=O)NCCO)c3cc(F)ccc32)c(C(F)(F)F)c1` [Example 55, (2Z)-N-(2-hydroxyethyl)-2-{4,4,7-trifluoro-1-[4-{[(2R)-2-fluoropropyl]oxy}-2-(trifluoromethyl)benzoyl]-1,2,3,4-tetrahydro-5H-1-benzazepin-5-ylidene}acetamide], the Ki on human V2 receptor was 16 nM.
`CCCOc1ccc(C(=O)N2CCC(F)(F)/C(=C\C(=O)Nc3cccc(O)c3)c3ccccc32)c(C(F)(F)F)c1` [Example 98]: on human V2 receptor, the Ki came to 6.2 nM.
As for `C[C@@H](F)COc1ccc(C(=O)N2CCC(F)(F)/C(=C\C(=O)NC[C@H](O)CO)c3ccccc32)c(C(F)(F)F)c1` [Example 130, (2Z)-2-{4,4-difluoro-1-[4-{[(2R)-2-fluoropropyl]oxy}-2-(trifluoromethyl)benzoyl]-1,2,3,4-tetrahydro-5H-1-benzazepin-5-ylidene}-N-[(2S)-2,3-dihydroxypropyl]acetamide], the IC50 on CYP3A4 and at CYP2C9 was over 50000 nM each time.
Turning to `C[C@@H](F)COc1ccc(C(=O)N2CCC(F)(F)/C(=C\C(=O)NCCC(N)=O)c3cc(F)ccc32)c(C(F)(F)F)c1` [Example 134, 3-[((2Z)-2-{4,4,7-trifluoro-1-[4-{[(2R)-2-fluoropropyl]oxy}-2-(trifluoromethyl)benzoyl]-1,2,3,4-tetrahydro-5H-1-benzazepin-5-ylidene}acetyl)amino]propanamide], the Ki at human V2 receptor came to 12 nM.
For the molecule `C[C@@H](F)COc1ccc(C(=O)N2CCC(F)(F)/C(=C\C(=O)NC[C@@H](O)CO)c3cc(F)ccc32)c(C(F)(F)F)c1` [Example 136, (2Z)-N-[(2R)-2,3-dihydroxypropyl]-2-{4,4,7-trifluoro-1-[4-{[(2R)-2-fluoropropyl]oxy}-2-(trifluoromethyl)benzoyl]-1,2,3,4-tetrahydro-5H-1-benzazepin-5-ylidene}acetamide], at human V2 receptor, the Ki turned out to be 11 nM. Besides, the IC50 on CYP3A4 and at CYP2C9 was over 50000 nM in each case.
